Results reported in patent US8802678B2, “Carbonylated (aza) cyclohexanes as dopamine D3 receptor ligands” (Bioprojet, priority 2006, dated 2014).

melting point [°C] | Structure (SMILES)
190 | CC(O)c1cccc(N2CCN(CC[C@H]3CC[C@H](NC(=O)CC(F)(F)F)CC3)CC2)c1 (some centres unmarked) [Example 477, 3,3,3-trifluoro-N-[4-(2-{4-[3-(1-hydroxyethyl)phenyl]piperazin-1-yl}ethyl)cyclohexyl]propanamide]
125 | CCOCC(=O)N[C@H]1CC[C@H](CCN2CCN(c3cccc(C(F)(F)F)c3F)CC2)CC1 [Example 478, 2-Ethoxy-N-(4-{2-[4-(2-fluoro-3-trifluoromethylphenyl)piperazin-1-yl]ethyl}cyclohexyl)acetamide]
190 | N#CCCCC(=O)N[C@H]1CC[C@H](CCN2CCN(c3ccc(Cl)cc3)CC2)CC1 [Example 479, N-(4-{2-[4-(4-Chlorophenyl)piperazin-1-yl]ethyl}cyclohexyl)-4-cyanobutanamide]
234 | O=C(CC(F)(F)F)N[C@H]1CC[C@H](CCN2CCN(c3ccc(Cl)cc3)CC2)CC1 [Example 480, N-(4-{2-[4-(4-Chlorophenyl)-piperazin-1-yl]ethyl}cyclohexyl)-3,3,3-trifluoropropanamide]
65 | CC(=O)CN1CCC(CCN2CCN(c3ccc(C)cc3F)CC2)CC1 [Example 482, 1-(4-{2-[4-(2-Fluoro-4-methylphenyl)piperazin-1-yl]ethyl}piperidin-1-yl)propan-2-one]
164 | COc1ccc(C)cc1N1CCN(CC[C@H]2CC[C@H](NC(=O)CCCC#N)CC2)CC1 [Example 483, 4-Cyano-N-(4-{2-[4-(2-methoxy-5-methylphenyl)piperazin-1-yl]ethyl}cyclohexyl)butanamide]
197 | Cc1ccc(N2CCN(CC[C@H]3CC[C@H](NC(=O)CC#N)CC3)CC2)c(F)c1 [Example 484, 2-Cyano-N-(4-{2-[4-(2-fluoro-4-methylphenyl)piperazin-1-yl]ethyl}cyclohexyl)acetamide]
173 | Cc1ccc(N2CCN(CC[C@H]3CC[C@H](NC(=O)CCCC#N)CC3)CC2)c(F)c1 [Example 485, 4-Cyano-N-(4-{2-[4-(2-fluoro-4-methylphenyl)piperazin-1-yl]ethyl}cyclohexyl)butanamide]
202 | O=C(N[C@H]1CC[C@H](CCN2CCN(c3ccc(Cl)c(Cl)c3)CC2)CC1)C1=CCCC1 [Example 486, Cyclopent-1-enecarboxylic acid (4-{2-[4-(3,4-dichlorophenyl)piperazin-1-yl]ethyl}cyclohexyl) amide]
112 | CCOCC(=O)N[C@H]1CC[C@H](CCN2CCN(c3ccc(Cl)c(Cl)c3)CC2)CC1 [Example 487, N-(4-{2-[4-(3,4-Dichlorophenyl)piperazin-1-yl]ethyl}cyclohexyl)-2-ethoxyacetamide]
237 | O=C(N[C@H]1CC[C@H](CCN2CCN(c3ccc(Cl)cc3)CC2)CC1)C1=CCCC1 [Example 488, Cyclopent-1-enecarboxylic acid (4-{2-[4-(4-chlorophenyl)-piperazin-1-yl]ethyl}cyclohexyl) amide]
197 | Cc1ccc(N2CCN(CC[C@H]3CC[C@H](NC(=O)C4=CCCC4)CC3)CC2)cc1Cl [Example 491, Cyclopent-1-enecarboxylic acid (4-{2-[4-(3-chloro-4-methylphenyl)piperazin-1-yl]ethyl}cyclohexyl) amide]
192 | Cc1ccc(N2CCN(CC[C@H]3CC[C@H](NC(=O)CC(F)(F)F)CC3)CC2)cc1Cl [Example 492, N-(4-{2-[4-(3-Chloro-4-methylphenyl)piperazin-1-yl]ethyl}cyclohexyl)-3,3,3-trifluoropropanamide]
217 | Cc1ccc(N2CCN(CC[C@H]3CC[C@H](NC(=O)CC(F)(F)F)CC3)CC2)cc1 [Example 493, 3,3,3-Trifluoro-N-{4-[2-(4-p-tolylpiperazin-1-yl)ethyl]cyclohexyl}propanamide]
199 | O=C(N[C@H]1CC[C@H](CCN2CCN(c3ccc(F)cc3F)CC2)CC1)C1CC=CC1 [Example 494, Cyclopent-3-enecarboxylic acid (4-{2-[4-(2,4-difluorophenyl)-piperazin-1-yl]ethyl}cyclohexyl) amide]
114 | CC(=O)CN1CCC(CCN2CCN(c3ccc(Cl)c(Cl)c3)CC2)CC1 [Example 495, 1-(4-{2-[4-(3,4-Dichlorophenyl)-piperazin-1-yl]ethyl}piperidin-1-yl)propan-2-one]
192 | O=C(N[C@H]1CC[C@H](CCN2CCN(c3cccc(C(F)(F)F)c3F)CC2)CC1)C1=COCC1 [Example 497, 4,5-Dihydrofuran-3-carboxylic acid (4-{2-[4-(2-fluoro-3-trifluoromethylphenyl)piperazin-1-yl]ethyl}cyclohexyl) amide]
140 | O=C(N[C@H]1CC[C@H](CCN2CCN(c3cccc(C(F)(F)F)c3F)CC2)CC1)[C@@H]1CCCN1 [Example 501, Pyrrolidine-2-carboxylic acid (4-{2-[4-(2-fluoro-3-trifluoro-methylphenyl)piperazin-1-yl]ethyl}cyclohexyl) amide]
175 | COCCCC(=O)N[C@H]1CC[C@H](CCN2CCN(c3ccc(Cl)c(Cl)c3)CC2)CC1 [Example 502, N-(4-{2-[4-(3,4-Dichlorophenyl)piperazin-1-yl]ethyl}cyclohexyl)-4-methoxybutanamide]
130 | CCOCC(=O)N[C@H]1CC[C@H](CCN2CCN(c3ccc(F)cc3F)CC2)CC1 [Example 503, N-(4-{2-[4-(2,4-Difluorophenyl)piperazin-1-yl]ethyl}cyclohexyl)-2-ethoxyacetamide]
185 | COCCCC(=O)N[C@H]1CC[C@H](CCN2CCN(c3ccc(F)cc3F)CC2)CC1 [Example 504, N-(4-{2-[4-(2,4-Difluorophenyl)piperazin-1-yl]ethyl}cyclohexyl)-4-methoxybutanamide]
172 | Cc1ccc(N2CCN(CC[C@H]3CC[C@H](NC(=O)CCCC#N)CC3)CC2)cc1C [Example 505, 4-Cyano-N-(4-{2-[4-(3,4-dimethylphenyl)piperazin-1-yl]ethyl}cyclohexyl)butanamide]

Continued, compound first:

Structure (SMILES) | melting point [°C]
N#CCCC(F)(F)C(=O)N[C@H]1CC[C@H](CCN2CCN(c3cccc(C(F)(F)F)c3F)CC2)CC1 [Example 460, 4-Cyano-2,2-difluoro-N-(4-{2-[4-(2-fluoro-3-trifluoromethyl-phenyl)piperazin-1-yl]ethyl}cyclohexyl)butanamide] | 151
CS(=O)(=O)c1cccc(N2CCN(CC[C@H]3CC[C@H](NC(=O)C(F)(F)F)CC3)CC2)c1 [Example 461, 2,2,2-Trifluoro-N-(4-{2-[4-(3-methanesulfonylphenyl)piperazin-1-yl]ethyl}cyclohexyl)acetamide] | 132
N#CCCCC(=O)NC1CCC(CCN2CCN(c3cccc(-c4ccccc4)c3)CC2)CC1 (centres unmarked) [Example 462, N-{4-[2-(4-Biphenyl-3-ylpiperazin-1-yl)ethyl]cyclohexyl}-4-cyanobutanamide] | 119
O=C(N[C@H]1CC[C@H](CCN2CCN(c3cc(F)c(F)c(F)c3)CC2)CC1)C1=CCCC1 [Example 463, Cyclopent-1-enecarboxylic acid (4-{2-[4-(3,4,5-trifluorophenyl)piperazin-1-yl]ethyl}cyclohexyl) amide] | 208
CC(=O)CN1CCC(CCN2CCN(c3ccc(C)c(C#N)c3)CC2)CC1 [Example 464, 2-Methyl-5-(4-{2-[1-(2-oxopropyl)piperidin-4-yl]ethyl}piperazin-1-yl)benzonitrile] | 107
CCOCC(=O)N[C@H]1CC[C@H](CCN2CCN(c3cc(F)c(F)c(F)c3)CC2)CC1 [Example 465, 2-Ethoxy-N-(4-{2-[4-(3,4,5-trifluorophenyl)piperazin-1-yl]ethyl}cyclohexyl)acetamide] | 133
O=C(N[C@H]1CC[C@H](CCN2CCN(c3cc(F)c(F)c(F)c3)CC2)CC1)C1CC=CC1 [Example 466, Cyclopent-3-enecarboxylic acid (4-{2-[4-(3,4,5-trifluorophenyl)piperazin-1-yl]ethyl}cyclohexyl) amide] | 224
Cc1ccc(N2CCN(CC[C@H]3CC[C@H](NC(=O)CCCC#N)CC3)CC2)cc1 [Example 467, 4-Cyano-N-{4-[2-(4-p-tolylpiperazin-1-yl)ethyl]cyclohexyl}butanamide] | 189
CS(=O)(=O)c1cccc(N2CCN(CC[C@H]3CC[C@H](NC(=O)CCC(F)(F)F)CC3)CC2)c1 [Example 469, 4,4,4-Trifluoro-N-(4-{2-[4-(3-methanesulfonylphenyl)piperazin-1-yl]ethyl}cyclohexyl)butanamide] | 205
COCCCC(=O)N[C@H]1CC[C@H](CCN2CCN(c3cccc(C(F)(F)F)c3F)CC2)CC1 [Example 470, N-(4-{2-[4-(2-Fluoro-3-trifluoromethylphenyl)piperazin-1-yl]ethyl}cyclohexyl)-4-methoxybutanamide] | 175
N#CCCCC(=O)N[C@H]1CC[C@H](CCN2CCN(c3ccc(Cl)cc3F)CC2)CC1 [Example 471, N-(4-{2-[4-(4-Chloro-2-fluorophenyl)piperazin-1-yl]ethyl}cyclohexyl)-4-cyanobutanamide] | 171
N#CCC(=O)N[C@H]1CC[C@H](CCN2CCN(c3cc(F)c(F)cc3F)CC2)CC1 [Example 472, 2-Cyano-N-(4-{2-[4-(2,4,5-trifluorophenyl)piperazin-1-yl]ethyl}cyclohexyl)acetamide] | 188
N#CCCCC(=O)N[C@H]1CC[C@H](CCN2CCN(c3cc(F)c(F)cc3F)CC2)CC1 [Example 473, 4-Cyano-N-(4-{2-[4-(2,4,5-trifluorophenyl)piperazin-1-yl]ethyl}cyclohexyl)butanamide] | 153
CCOCC(=O)N[C@H]1CC[C@H](CCN2CCN(c3ccc(C)cc3)CC2)CC1 [Example 474, 2-Ethoxy-N-{4-[2-(4-p-tolylpiperazin-1-yl)ethyl]cyclohexyl}acetamide] | 130
Cc1ccc(N2CCN(CC[C@H]3CC[C@H](NC(=O)C4=CCCC4)CC3)CC2)cc1 [Example 475, Cyclopent-1-enecarboxylic acid {4-[2-(4-p-tolylpiperazin-1-yl)ethyl]cyclohexyl} amide] | 227
O=C(N[C@H]1CC[C@H](CCN2CCN(c3cccc(C(F)(F)F)c3F)CC2)CC1)C1=COCCC1 [Example 476] | 207
